# Publication PMC11997890, “In Vivo and In Vitro Pharmacokinetic Studies of a Dual Topoisomerase I/II Inhibitor” (ACS Pharmacology & Translational Science, 2025)
# Values joined by “and” are separate entries in the source; they are usually repeats but may differ in a detail not shown here. Equal entries are not always repeated. Where two headings read alike, the source gives them in different places.
# Experiments:
# [1] = In vivo plasma pharmacokinetics after i.v. and p.o. administration of P8-D6; parameters: species or system Sprague–Dawley rats; conditions: for AUC(0-t): read-out: AUC0–10 h (converted)
# Method: The plasma concentration–time profiles and pharmacokinetic parameters of P8-D6 after p.o. and i.v. administration are presented in Figure B and Table .
# Compartment models were used to calculate the pharmacokinetic parameters and plasma curves.
# Since a pure drug solution of P8-D6 was administered in this study, liberation (release from the dosage form) could be neglected; therefore, first-order kinetics were assumed. […] Based on our in vivo results and assumptions, P8-D6 is first homogeneously distributed in the central compartment after application before being transferred to the peripheral compartment. Elimination occurs via the central compartment. The substance transport into, out of, and between the different compartments is characterized by the macro rate constants.
# Starting with the i.v. administration, a two-compartment pharmacokinetic model was chosen that considers the biexponential decay of a fast initial first-order distribution and a slow terminal first-order elimination phase (supplied as Figure S4A,C). By this method, a fictitious initial P8-D6 plasma concentration c 0/i.v. of 4.43 μM at the time of injection was calculated (A (3.27 μM) + B (1.16 μM)). This fictitious plasma concentration corresponds to ∼1% (3.95 μmol in 8.8 mL of the theoretical plasma concentration and matches the plasma protein binding of P8-D6 of about 99% (Figure A). Based on the dose and c 0, a central V c of 0.891 L was calculated. Since the macro rate constant for distribution is considerably greater (37-fold) than the one for elimination, the elimination is the rate-determining step according to first-order kinetics.
# To cope with the overlapping curves of absorption and elimination after p.o. administration, compartmental models are used (supplied as Figure S4B,D). However, since only two to three data points exist (depending on the definitive start time of the elimination) during the elimination and distribution phase (120–600 min), no differentiation between these two phases can be described by our data (as shown by the residual method in Figure S4B). Therefore, a one-compartment model according to the Bateman function with both first-order invasion and elimination rates was assumed for the p.o. administration of P8-D6 (supplied as Figure S4D). […] A fictitious initial plasma concentration, c 0/p.o. = 2.21 μM, was calculated.
# (§1) Effects of the diet were reduced by fasting the rats overnight prior to P8-D6 application. Blood samples were taken at 5, 15, 30, 60, 120, 180, 300, 360, and 600 min after i.v. application or 30, 60, 90, 120, 240, and 600 min after p.o. application. Immediately afterward, the plasma was collected by centrifugation at 2000 g for 10 min. The rats were housed in metabolic cages to collect the urine in specially attached containers. Urine and feces samples were collected every 2 h. The rats were euthanized by CO2 inhalation. The harvested organs (kidney, spleen, lung, liver, and colon) were weighed and submerged in liquid nitrogen. All collected samples were stored at −80 °C until analysis.
# 50 μL of plasma was mixed with 100 μL of an ice-cold mixture of acetonitrile/methanol (2:1) and stirred in the vortex for 5 min. The suspension was centrifuged at 15000 g for 10 min, and 50 μL of the supernatant was injected into the HPLC (chapter Chromatographic Conditions). Calibration/control samples were prepared the same way with plasma samples collected from equal Sprague–Dawley rats from nonpharmacological studies. For calibration, the matrix was spiked with a defined concentration of the analyte. Final concentrations ranged from 0 μM to 5 μM. Triple determinations were performed and prepared on each respective day. LoD: 0.02 μM, LoQ: 0.05 μM (plasma).
# For data analysis and statistics, Microsoft Excel 2019 and GraphPad Prism (version 10.2, GraphPad Software Inc., San Diego, California), commercially available software, were used. All data are expressed either as mean ± SEM or ± SD. […]
# [2] = In vivo elimination via urine and feces over 24 h; parameters: species or system Sprague–Dawley rats; conditions: for P8-D6 (plus glucuronide) exceeds metabolite in feces: 24 h cumulative
# Method: To investigate the elimination of P8-D6 and its phase I and phase II metabolites, urine and feces samples were collected over the course of 24 h and examined.
# To examine possible in vivo phase II metabolites, an enzymatic hydrolysis with glucuronidase/sulfatase from Helix pomatia was performed with both urine and feces samples. […] No sulfate phase II metabolites were observed.
# as §1
# Thirty mg of feces was added to 100 μL of a 0.15 M NaCl solution and stirred in the vortex for 30 s. Afterward, 200 μL of an ice-cold mixture of acetonitrile/methanol (2:1) was added before vortexing again for 30 s. Finally, the suspension was centrifuged at 15000 g for 5 min. 40 μL of the supernatant was injected into the HPLC. The samples from three mice per group were analyzed. Calibration/control samples were prepared the same way with fecal samples collected ahead of the in vivo study. For calibration, the matrix was spiked with a defined concentration of the analyte. Final concentrations ranged from 0 nmol/g to 200 nmol/g. Triple determinations were performed and prepared on each respective day. 50 μL of urine was mixed with 100 μL of an ice-cold mixture of acetonitrile/methanol (2:1) and stirred in the vortex for 5 min. The suspension was centrifuged at 15000 g for 5 min, and 40 μL of the supernatant was injected into the HPLC. Calibration/control samples were prepared the same way with urine samples collected ahead of the in vivo study. For calibration, the matrix was spiked with a defined concentration of the analyte. Final concentrations ranged from 0 to 10 μM. Triple determinations were performed and prepared on each respective day. LoD: 0.02 μM (urine), 0.22 nmol/g (feces); LoQ: 0.06 μM (urine), 0.72 nmol/g (feces). Additionally, to identify phase II metabolites, feces (30 mg) and urine (50 μL) from the in vivo study were incubated with arylsulfatase (at pH 6.2) and glucuronidase (at pH 4.5) from Helix pomatia in acetate buffer for 2 h in a 37 °C water bath. For reference, feces and urine without enzyme and 4-nitrophenylsulfate and 4-nitrophenylglucuronide were incubated as well. All experiments were performed in biological triplicates.
# [3] = tested on: NCI-60 human tumor cell lines; assay: NCI-60 DTP Human Tumor Cell Lines Screening; assay type: cell-based; conditions: for GI50: Homo sapiens, NCI-60 panel
# [4] = male, Sprague-Dawley, rat, plasma, iv, 10 mg/kg, after i.v. administration of P8-D6 10 mg/kg BW, read-out: c max/i.v. of metabolite in plasma
# [5] = male, Sprague-Dawley, rat, plasma, po, 50 mg/kg, after p.o. administration of P8-D6 50 mg/kg BW, read-out: c max/p.o. of metabolite in plasma
smiles,measurement,setting,value
COc1cc(-c2cc3ccncc3c3nc(OCC[N+](C)(C)[O-])c4cnccc4c23)cc(OC)c1OC [P8-D6 N-oxide],Cmax,[1]; [4],228 nM
same,Cmax,[1]; [5],54 nM
same,P8-D6 (plus glucuronide) exceeds metabolite in feces,[2],31 fold
same,concentration in feces,[2]; after 2 h,2.90 nmol/g
same,detectable in feces up to,"[2]; rat, in vivo",up to 8 h
CNCCOc1nc2c3cnccc3cc(-c3cc(OC)c(OC)c(OC)c3)c2c2ccncc12 [P8-D6 mono],GI50,[3],37 nM
same,Cmax,[1]; [4],114 nM
same,Cmax,[1]; [5],341 nM
same,P8-D6 (plus glucuronide) exceeds metabolite in feces,[2],3.7 fold
"COc1cc(-c2cc3ccncc3c3nc(OCCN(C)C)c4cnccc4c23)cc(OC)c1OC [P8-D6, 6-(N,N-dimethyl-2-aminoethoxy)-11-(3,4,5-trimethoxyphenyl)-pyrido[3,4-c][1,9]-phenanthroline]",GI50,[3],49 nM
same,CLi.v.,[1]; i.v.,6.34 mL/min
same,apparent volume of distribution,[1]; i.v.,57.69 L/m^2
same,fictitious plasma concentration as share of theoretical plasma concentration,[1]; i.v.,~1%
same,macro rate constant for distribution greater than for elimination,[1]; i.v.,37 fold
same,c min,"[1]; i.v. 10 mg/kg BW, plasma, 10 mg/kg",0.35 µM and 0.35 ± 0.05 µM
same,CL,"[1]; i.v., total body surface of 0.0357 m^2",10.66 L/(h m^2)
same,Macro rate constant ß,"[1]; i.v., two-compartment model",0.002 min^–1
same,Macro rate constant α,"[1]; i.v., two-compartment model",0.073 min^–1
same,coefficient A,"[1]; i.v., two-compartment model",3.27 µM
same,coefficient B,"[1]; i.v., two-compartment model",1.16 µM
same,clearance,"[1]; male, Sprague-Dawley, rat, plasma, iv, 10 mg/kg body weight",6.33 mL/min
same,half-life,"[1]; male, Sprague-Dawley, rat, plasma, iv, 10 mg/kg body weight, i.v., read-out: Initial t 1/2",0.158 h
same,half-life,"[1]; male, Sprague-Dawley, rat, plasma, iv, 10 mg/kg body weight, i.v., read-out: Terminal t 1/2",5.78 h
same,Vd,"[1]; male, Sprague-Dawley, rat, plasma, iv, 10 mg/kg body weight, i.v., read-out: V d",2.06 L and 9.36 L/kg
same,Vd,"[1]; male, Sprague-Dawley, rat, plasma, iv, 10 mg/kg body weight, i.v., read-out: V ss",2.95 L and 13.4 L/kg
same,half-life,"[1]; male, Sprague-Dawley, rat, plasma, iv, 10 mg/kg body weight, i.v., read-out: plasma half-life t 1/2 (converted)",5.8 h
same,C0,"[1]; male, Sprague-Dawley, rat, plasma, iv, 10 mg/kg body weight, i.v., at the time of injection, two-compartment model, read-out: fictitious initial plasma concentration c 0/i.v.",4430 nM
same,Cmax,"[1]; male, Sprague-Dawley, rat, plasma, iv, 10 mg/kg, i.v. 10 mg/kg BW, plasma, read-out: c max",3950 ± 420 nM
same,Tmax,"[1]; male, Sprague-Dawley, rat, plasma, iv, 10 mg/kg, i.v. 10 mg/kg BW, read-out: t max",0 h
same,AUC(0-t),"[1]; male, Sprague-Dawley, rat, plasma, iv, i.v. 10 mg/kg BW",7.49 µM·h
same,bioavailability,"[1]; male, Sprague-Dawley, rat, plasma, iv, i.v. 10 mg/kg BW, read-out: Bioavailability",100%
same,bioavailability,"[1]; male, Sprague-Dawley, rat, plasma, oral, 50 mg/kg body weight, p.o. 50 mg/kg BW vs i.v. 10 mg/kg BW, read-out: Oral bioavailability",21.5%
same,half-life,"[1]; male, Sprague-Dawley, rat, plasma, po, 50 mg/kg body weight, p.o., read-out: Terminal t 1/2",8.64 h
same,half-life,"[1]; male, Sprague-Dawley, rat, plasma, po, 50 mg/kg body weight, p.o., read-out: plasma half-life t 1/2 (converted)",8.6 h
same,k el,"[1]; male, Sprague-Dawley, rat, plasma, po, 50 mg/kg body weight, p.o., one-compartment model, read-out: Macro rate constant k e",2.17e-05 s⁻¹
same,C0,"[1]; male, Sprague-Dawley, rat, plasma, po, 50 mg/kg body weight, p.o., one-compartment model, read-out: fictitious initial plasma concentration c 0/p.o.",2210 nM
same,Cmax,"[1]; male, Sprague-Dawley, rat, plasma, po, 50 mg/kg, p.o. 50 mg/kg BW, compartment model, read-out: c max (calculated)",1250 nM
same,Tmax,"[1]; male, Sprague-Dawley, rat, plasma, po, 50 mg/kg, p.o. 50 mg/kg BW, compartment model, read-out: t max (calculated) (converted)",1.77 h
same,Cmax,"[1]; male, Sprague-Dawley, rat, plasma, po, 50 mg/kg, p.o. 50 mg/kg BW, plasma, read-out: c max (measured)",1160 nM
same,Tmax,"[1]; male, Sprague-Dawley, rat, plasma, po, 50 mg/kg, p.o. 50 mg/kg BW, read-out: t max (measured) (converted)",2 h
same,AUC(0-t),"[1]; male, Sprague-Dawley, rat, plasma, po, p.o. 50 mg/kg BW",8.03 µM·h
same,CL,[1]; p.o.,0.24 L/h
same,CLp.o.,[1]; p.o.,3.96 mL/min
same,apparent volume of distribution,[1]; p.o.,82.92 L/m^2
same,c min,"[1]; p.o. 50 mg/kg BW, plasma, 50 mg/kg",0.59 µM and 0.59 ± 0.06 µM
same,Macro rate constant k a,"[1]; p.o., one-compartment model",0.031 min^–1
same,CL,"[1]; p.o., total body surface of 0.0357 m^2",6.65 L/(h m^2)
same,V ss,[1]; total body surface of 0.0357 m^2,82.69 L/m^2
COc1cc(-c2cc3ccncc3c3[nH]c(=O)c4cnccc4c23)cc(OC)c1OC [P8-DO],efficacy against cancer,[3]; NCI 60 Cell Screening,ineffective against cancer
same,detection in plasma,[1]; after administration of P8-D6,no P8-DO was detected
same,detection in urine and feces,[2]; 24 h,absent
